Results from patent US5182290A (Neurogen Corporation, priority 1991, dated 1993).
Entries after “also recorded” stand apart in the source; their conditions may differ.

Assays:
[1] = target: GABAa receptor; experiment: Inhibition of 3H-RO15-1788 (3H-Flumazenil) binding to rat cortical tissue (GABAa receptor assay)
Description: Assays are carried out as described in Thomas and Tallman (J. Bio. Chem. 156: 9838-9842, J. Neurosci. 3:433-440, 1983). Rat cortical tissue is dissected and homogenized in 25 volumes (w/v) of 0.05M Tris HCl buffer (pH 7.4 at 4° C.). The tissue homogenate is centrifuged in the cold (4° C.) at 20,000×g for 20 minutes. The supernatant is decanted and the pellet is rehomogenized in the same volume of buffer and again centrifuged at 20,000× g. The supernatant is decanted and the pellet is frozen at -20° C. overnight. The pellet is then thawed and rehomogenized in 25 volume (original wt/vol) of buffer and the procedure is carried out twice. The pellet is finally resuspended in 50 volumes (w/vol of 0.05M Tris HCl buffer (pH 7.4 at […]).
Incubations contain […] of radioligand 0.5 nM (^3 H-RO15-1788[^3 H-Flumazenil] specific activity 80 Ci/mmol), drug or blocker and buffer to a total volume of […]. Incubations are carried for 30 min at 4° C. then are rapidly filtered through GFB filters to separate free and bound ligand. Filters are washed twice with fresh 0.05M Tris HCl buffer (pH 7.4 at 4° C.) and counted in a liquid scintillation counter. 1.0 mM diazepam is added to some tubes to determine nonspecific binding. Data are collected in triplicate determinations, averaged and % inhibition of total specific binding is calculated. Total Specific Binding=Total-Nonspecific. In some cases, the amounts of unlabeled drugs is varied and total displacement curves of binding are carried out. Data are converted to a form for the calculation of IC50 and Hill Coefficient (nH).

[2] = test system: benzodiazepine binding site; conditions: result in words; Tallman et al., 1978; cited from earlier work
[3] = 3H-RO15-1788 0.5 nM, rat cortical tissue, 30 min at 4° C.

**Q.** What does the source list for `Cn1c(=O)c2nc(-c3ccccc3)oc2c2ccccc21` [5-methyl-2-phenyl-oxazolo[4,5-c]quinolin-4(5H)-one]?
**A.** IC50 ([1]; prior art compound, assay described above, unit inferred): ~50000 nM; activity in the assay ([1]; prior art compound, result in words): no activity; also recorded: inactive

**Q.** Which “Blockade of enhancement of benzodiazepine binding by GABA agonists” value [2] does the source give for `CN1CCc2cc3c(cc2[C@H]1[C@@H]1OC(=O)c2c1ccc1c2OCO1)OCO3` [(+) bicuculline] here?
**A.** The value was “blocked”.

**Q.** For `CN1CCc2cc3c(cc2[C@@H]1[C@H]1OC(=O)c2c1ccc1c2OCO1)OCO3` [(-) bicuculline], which “Blockade of enhancement of benzodiazepine binding by GABA agonists” value [2] is on record?
**A.** The value was “much less active”.

**Q.** For `COc1cccc(-c2nc3c(=O)[nH]c4ccccc4c3o2)c1` [Compound 1, 2-(3-Methoxyphenyl)-oxazolo[4,5-c]quinolin-4(5H)-one], which IC50 [1, 3] is on record?
**A.** Its IC50 is 600 nM.

**Q.** Which IC50 [1, 3] does the source give for `O=c1[nH]c2ccccc2c2oc(-c3ccccc3)nc12` [Compound 2, 2-Phenyl-oxazolo[4,5-c]quinolin-4(5H)-one] here?
**A.** Its IC50 is 95 nM.

**Q.** For `COc1ccc(-c2nc3c(=O)[nH]c4ccccc4c3o2)cc1` [Compound 4, 2-(4-Methoxyphenyl)-oxazolo[4,5-c]quinolin-4(5H)-one], which IC50 [1, 3] is on record?
**A.** The IC50 was 125 nM.
